Test results reported in US11666559B2, “Spiro-lactam compounds, process and uses thereof” (UNIVERSIDADE DE COIMBRA, priority 2017, dated 2023).
Where two headings read alike, the source gives them in different places.

Tests used:
[1] = tested on: Bacillus subtillis ATCC 6633; assay: Anti-bacterial activity, agar diffusion method; type: cell-based, Bacillus subtilis; details: at the concentration of 1 mg/ml
Experimental: In an embodiment, anti-bacterial activity of the compounds now disclosed was determined according to CLSI guidelines. The following bacteria were used: reference strains E. coli ATCC 10536, Staphylococcus aureus ATCC 6538, Bacillus subtilis ATCC 6633 and Enterococcus faecalis ATCC 29212; clinical strains of E. coli and Pseudomonas aeruginosa isolated in our laboratory; and strains of Lactobacillus rhamnosus and Lactobacillus plantarum also isolated in our laboratory. The Minimum Inhibitory Concentration (MIC) was determined by the agar diffusion method, in plates of Mueller-Hinton agar or Rogosa agar (for Lactobacilli). Briefly, 10^8 cfu/ml bacterial suspensions were prepared in sterile water and spread in the culture media. Sterile disks containing different concentrations of P3 were placed on the inoculated surface. Plates were incubated at 37° C. for 24 h or 48 h. Lactobacilli were incubated at microaerophilic conditions. A negative control made of sterile water was used. Disks of amoxicillin and imipenem were used as positive controls.

[2] = tested on: HIV-2
Experimental: (§1) In an embodiment, TZM-bl cells (AIDS Research and Reference Reagent Program, National Institutes of Health, USA) were cultured in complete growth medium that consists of Dulbecco's minimal essential medium (DMEM) supplemented with 10% fetal bovine serum (FBS), 100 U/ml of penicillin-streptomycin (Gibco/Invitrogen, USA), 1 mM of sodium pyruvate (Gibco/Invitrogen, USA), 2 mM of L-glutamine (Gibco/Invitrogen, USA) and 1 mM of non-essential amino acids (Gibco/Invitrogen, USA).
(§2) In an embodiment, the primary isolates 93AOHDC249, 93AOHDC250, 01PTHDECJN and 03PTHCC9, used in this study were previously isolated, titrated and characterized for co-receptor usage. HIV reference strain SG3.1 was obtained by transfection of HEK293T cells with pSG3.1 (HIV-1) plasmid using Fugene 6 reagent (Roche, Switzerland) according to manufacturer's instructions.
(§3) In an embodiment, the 50% tissue culture infectious dose (TCID50) of the virus was determined in a single-round viral infectivity assay using a luciferase reporter gene assay in TZM-bl cells and calculated using the statistical method of Reed and Muench^27.
In an embodiment, the antiviral activity of the compounds was determined in a single-round assay with TZM-bl cells as previously described ^26. Cells were infected with 200 TCID50 of virus in the presence of serial fold dilutions of the BSS compounds in GM, supplemented with DEAE-dextran (19.7 μg/ml). After 48 h of infection, luciferase expression was quantified with the One-Glow luciferase assay substrate reagent (Promega, USA) according to manufacturer's instructions. Briefly, a volume of reagent equal to that of the culture medium in each well was added. For 96-well plates, typically 100 μl of reagent is added to the cells grown in 100 μl of medium. After an incubation of 3 minutes at room temperature to allow complete cell lysis luminescence was measured in Tecan Infinite M200. Background luminescence was measured by using control wells that contained only target cells and GM. Maraviroc (CCR5 antagonist), T1249 (fusion inhibitor) and AMD3100 (CXCR4 antagonist) were used as positive controls of the antiviral activity. At least two independent experiments were performed for each analysis and each assay was set up in triplicate wells.
(§4) In an embodiment, dose-response curves were estimated from the percentage of inhibition of infection (y-axis) against logo of concentration of each compound (x-axis) using the sigmoidal dose-response equation (variable slope) in GraphPad Prism version 5.00 for Windows (GraphPad Software, San Diego Calif. USA, www.graphpad.com). IC50 and IC90 values were determined from this curve. IC50 and IC90 values correspond to the concentration of compound that inhibits viral replication in 50% and 90%, respectively.

[3] = tested on: TZM-bl cells; assay: Cellular viability assay (alamarBlue) in TZM-bl cells
Source text: In an embodiment, the cellular cytotoxicity of 17 spiro-β-lactams was investigated in TZM-bl cells using the AlamarBlue assay as recommended by the manufacturer (Invitrogen, USA). TZM-bl, previously designated JC53-bl (clone 13) is a HeLa cell line. The parental cell line (JC.53) stably expresses large amounts of CD4, CCR5 and CXCR4. The TZM-bl cell line was generated from JC.53 cells by introducing separate integrated copies of the luciferase and […] genes under control of the HIV-1 promoter. The TZM-bl cell line is highly sensitive to infection with diverse isolates of HIV.
In an embodiment, the cellular viability assay was carried out as follows: the potential in vitro cytotoxicity of all BSS compounds was evaluated in TZM-bl cells. TZM-bl cells (10000 cells/well in 96-well plates) were incubated in absence or presence of serial-two-fold dilutions of the compounds in growth medium (GM), with starting concentration of 100 μg/ml and a final concentration of 0.781 μg/ml. After 48 hours, cell viability was examined with alamarBlue reagent (Invitrogen, USA) according to manufacturer's instructions. Briefly, 10 μl of alamarBlue reagent was added to each well. After 4 hours at 37° C., the fluorescence was measured in Tecan Infinite M200 (excitation wavelength 550 nm and emission wavelength 600 nm).
In an embodiment, at least two independent experiments have been performed for each cytotoxicity analysis.
In an embodiment, for each assay there were medium controls (only growth medium), cell controls (cells without test compound) and cytotoxicity controls (a compound that kill cells—SDS).

[4] = tested on: HIV; assay: Anti-HIV activity evaluation (HIV type not specified); type: cell-based; details: both CCR-tropic isolates and CXCR4-tropic isolates; concentration of 15.2 μM
Experimental: as §1, §2, §3
In an embodiment, the antiviral activity of the compounds was determined in a single-round assay with TZM-bl cells as previously described ^26. […] After 48 h of infection, luciferase expression was quantified with the One-Glow luciferase assay substrate reagent (Promega, USA) according to manufacturer's instructions. […] After an incubation of 3 minutes at room temperature to allow complete cell lysis luminescence was measured in Tecan Infinite M200. Background luminescence was measured by using control wells that contained only target cells and GM. […]
as §4, with “IC50 and IC90 values correspond to the concentration of compound that inhibits viral replication in 50% and 90%, respectively.” left out

[5] = 03PTHCC19, CCR5 tropic HIV-2 isolate, TZM-bl cells, wa = without antiviral activity
[6] = 03PTHCC19, CCR5 tropic HIV-2 isolate, wa = without antiviral activity
[7] = HIV-2 primary isolate 00PTHCC20, X4, resistant to ABC, ZDV, d4T, ddl, LPV
[8] = HIV-2 primary isolate 00PTHDECT, R5/X4, resistant to DTG
[9] = HIV-2 primary isolate 03PTHCC20, X4, resistant to ABC, ZDV, d4T, ddl, LPV
[10] = HIV-2 primary isolate 03PTHSM9, X4, resistant to SQV, LPV, DRV and TAF
[11] = HIV-2 primary isolate 10PTHSJIG, R5, resistant to RAL, DTG, LPV, SQV, DRV and all NRTIs
[12] = HIV-2 primary isolate 15PTHCEC, X4, resistant to RAL, DTG, LPV, SQV, DRV, ABC, ddl, TDF, TAF, 3TC, d4T and FTC
[13] = HIV-2 primary isolate 15PTHSJIG, R5, resistant to RAL, DTG, 3TC and FTC
[14] = Table 3, HIV-2 isolate 03PTHCC19, R5, sensitive (control isolate), TZM-bl cells

COC(=O)C1=C[C@@]2(N=N1)C(=O)N1[C@@H](C(=O)O)C(C)(C)S[C@@H]12 [BSS-593, (2,3′R,5R)-5′-(methoxycarbonyl)-3,3-dimethyl-7-oxo-4-thia-1-azaspiro[bicyclo[3.2.0]heptane-6,3′-pyrazole]-2-carboxylic acid]
inhibitory activity [1]: no inhibitory activity | anti-HIV activity against HIV-2 (in words) [2]: only active against HIV-1 | IC50 [2, 5]: wa | IC90 [2, 5]: wa | MPI (maximum percentage of inhibition) [2, 6]: wa | CC50 ([3]; Table 2, TZM-bl cells, 48 hours, alamarBlue): 158 µM | CC50 ([3]; read-out: CC50 (cytotoxic concentration 50%), Table 1, TZM-bl cells, 48 hours, alamarBlue): 158 µM

CC1(C)S[C@H]2N(C(=O)[C@]23CC=C(C(=O)OCc2ccccc2)[C@@H]3C(=O)c2ccccc2)[C@H]1C(=O)OC(c1ccccc1)c1ccccc1 [BSS-730A]
inhibitory activity [1]: no inhibitory activity | inhibition of the replication [4]: about 100% | anti-HIV activity against HIV-2 (in words) [2]: potent activity | TI (in vitro therapeutic index, CC50/IC50) ([2]; 03PTHCC19, CCR5 tropic HIV-2 isolate): 14029.58 | IC50 [2, 5]: 0.005 µM | IC90 [2, 5]: 0.145 µM | MPI (maximum percentage of inhibition) [2, 6]: 99% | inhibition ([2]; HIV-2, concentration of 15.21 μM): about 100% | IC50 [2, 7]: 0.018 µM | IC90 [2, 7]: 0.073 µM | IC50 [2, 8]: 0.023 µM | IC90 [2, 8]: 0.057 µM | IC50 [2, 9]: 0.019 µM | IC90 [2, 9]: 0.095 µM | IC50 [2, 10]: 0.016 µM | IC90 [2, 10]: 0.116 µM | IC50 [2, 11]: 0.012 µM | IC90 [2, 11]: 0.032 µM | IC50 [2, 12]: 0.017 µM | IC90 [2, 12]: 0.051 µM | IC50 [2, 13]: 0.018 µM | IC90 [2, 13]: 0.056 µM | IC50 [2, 14]: 0.008 µM | IC90 [2, 14]: 0.064 µM | CC50 [3]: 76.8 µM
